Experimental data reported in PMC10149936, “Cofilin activation in pancreatic acinar cells plays a pivotal convergent role for mediating CCK-stimulated enzyme secretion and growth” (Frontiers in Physiology, 2023).

Key:
Assay type in all cases: cell-based
[1] = test system: cofilin (pS3) in AR42J cells; test: cofilin activation (pS3 cofilin Western blot) in AR42J cells; settings: Cytochalasin D 10 µM or Paclitaxel 5 µM, 4 h; A71378 30 nM 10 min
Description: (§1) CCK1 receptor transfected Panc-1 (CCK1-R/Panc-1) cells ([Berna et al., 2009]) and AR42J cells, were cultured in DMEM supplemented with 10% FBS and 1% penicillin/streptomycin and in RPMI supplemented with 10% FBS and 1% penicillin/streptomycin, respectively; and split 1:10 weekly with trypsin/EDTA, after washing in PBS. Finally, cells were seeded in 6-well plate and serum starved overnight, until they were 80% confluent. Cells were incubated at 37°C in 5% CO2/95% air. AR42J cells were treated with 100 nM dexamethasone for 72°h, which stimulates their differentiation into exocrine cells ([Logsdon, 1986]).
(§2) Western blotting and immunoprecipitation were performed as described previously ([Ramos-Alvarez and Jensen, 2018]). Whole cell lysates were subjected to SDS-PAGE using 4%–20% Tris–Glycine gels. […] The intensity of the protein bands was measured using GeneTools software from Syngene, which were assessed in the linear detection range.
(§3) FIGURE 12 Effect of two cofilin inhibitors, Cytochalasin D or Paclitaxel (A, B), or cofilin siRNA (C), on the ability of A71378 (30 and 10 nM) to alter activation of cofilin (A) and p44/42 (B, C). […] Western blots were analyzed using anti-pS3 cofilin, anti-pT202/Y204 p44/42 and Tubulin. Bands were visualized using chemiluminescence and quantified by densitometry. […] Results are expressed as % of basal stimulation of the control group. […]

[2] = test system: p44/42 MAPK in AR42J cells; test: p44/42 MAPK activation (pT202/Y204 Western blot) in AR42J cells; settings: Cytochalasin D 10 µM or Paclitaxel 5 µM, 4 h; A71378 30 nM 10 min
Description: as §1
as §2, with “range. […]” for “range.”
as §3

AR42J cells = test: amylase release from AR42J cells (Phadebas); settings: Cytochalasin D 10 µM or Paclitaxel 5 µM; for inhibition of CCK-8/A71378-induced amylase secretion: 4 h, CCK-8 and A71378 (0.03 and 1 nM), 30 min; for effect on basal amylase release: AR42J (Figure 13B)
Description: as §1
For siRNA-mediated knockdown, 5 × 10^5 CCK1-R/Panc-1 or AR42J cells were seeded into 6-well plates and incubated for 24 h. Cells were then transfected with 10 nM of siRNA against human SSH1 siRNA against human cofilin (Dharmacon. Lafayette, CO) in Opti-MEM medium for 48 h using Lipofectamine according to the manufacture’s instruction.
Amylase release was performed as described previously ([Sato et al., 1989]; [Ramos-Alvarez and Jensen, 2018]). Amylase activity was determined after 30 min incubation using the Phadebas reagent and was expressed as percentage of the total cellular amylase released into the extracellular medium during the incubation ([Ramos-Alvarez and Jensen, 2018]).
FIGURE 13 Effect of two cofilin inhibitors, Cytochalasin D or Paclitaxel, (A, B), or Cofilin siRNA (C), on the ability of CCK/TPA/A71378-stimulated amylase release form pancreatic acini (A) or AR42J cells (B, C). In (A, B) pancreatic acini and AR42J cells were incubated in the absence or presence of Cytochalasin D (10 µM) or Paclitaxel (5 µM) for 4 h and then incubated with no additions (control) or CCK-8 (0.03, 0.3, 1 and 100 nM), TPA (1 µM) or A71378 (0.03 and 1 nM) for 30 min and then lysed. In (B, C) AR42J cells were treated with Dexamethasone (100 nM) for 72 h, and in (C) AR42J cells were transfected with siRNA Non-targeting Control and siRNA against cofilin for 48 h, and then incubated with no addition (control) or CCK-8 (0.03 and 1 nM) and A71378 (0.03 and 1 nM) for 30 min. Amylase release, expressed as percent of cellular total amylase secreted, was determined after 30 min incubation. Means ± S.E. of at least 3 independent experiments. N.S., No significant.

[3] = test system: LIMK (pT508) in pancreatic acini; test: LIMK phosphorylation (pT508 LIMK Western blot) in isolated rat pancreatic acini
Description: Pancreatic acini preparations were obtained by collagenase digestion as previously described ([Bissonnette et al., 1984]; [Sato et al., 1989]; [Ramos-Alvarez and Jensen, 2018]). After collagenase digestion, dispersed acini were preincubated with different inhibitors in standard incubation solution ([Ramos-Alvarez and Jensen, 2018]; [Ramos-Ãlvarez et al., 2020]) for 3 h at 37°C under conditions specific for PKD/PKC, Src, PI3K, MAPKs, SSH1, LIMK, cofilin, other phosphatases and PAK4 inhibitors, as described previously ([Ramos-Alvarez and Jensen, 2018]; [Ramos-Ãlvarez et al., 2020]). Isolated acini and CCK1-R/Panc-1 cells (M&M 2.2.1) were also preincubated with two SSH1 inhibitors, D3 (25 μM, 1 h) ([Li et al., 2015]) or SE (50 μM, 3 h for acini; 24 h for CCK1-R/Panc-1 cells) ([Lee et al., 2017]). After preincubation, 1 mL aliquots of dispersed acini were incubated at 37°C for 3–15 min with CCK-8 (0.3 nM or 100 nM), for 5–15 min with TPA (1 µM) or without stimulants, used as control. Cells were lysed in lysis buffer (50 mM Tris/HCl pH 7.5, 150 mM NaCl, 1% Triton X-100, 1% deoxycholate, 0.1% sodium azide, 1 mM EGTA, 0.4 mM EDTA, 0.2 mM sodium orthovanadate, 1 mM PMSF, and one protease inhibitor tablet per 10 mL). After sonication, lysates were centrifuged at 10,000×g for 15 min at 4°C and protein concentration was measured using the Bio-Rad protein assay reagent. Finally, cells were processed as below for Western blotting.
Both concentrations of CCK-8 were used because CCK-8 is reported to have different responses with physiological and supraphysiological concentrations contributing to physiological and pathophysiological processes such as pancreatitis ([Dufresne et al., 2006]).
Western blotting and immunoprecipitation were performed as described previously ([Ramos-Alvarez and Jensen, 2018]). Whole cell lysates were subjected to SDS-PAGE using 4%–20% Tris–Glycine gels. […] Finally, membranes were then washed again twice in blocking buffer for 4 min, twice in washing buffer for 4 min, incubated for 4 min with chemiluminescence detection reagents. The intensity of the protein bands was measured using GeneTools software from Syngene, which were assessed in the linear detection range.
Isolated pancreatic acini were incubated with either no addition (control), CCK-8 (0.3 and 100 nM) or TPA (1 µM) for the indicated periods of time and then lysed. Western blots were analyzed using anti-pT508 LIMK, anti-pS3 cofilin and anti-pS978 SSH1, which […] the activation states of LIMK, cofilin and SSH1. Bands were visualized using chemiluminescence and quantified by densitometry.

| Compound | inhibition of CCK1-R-induced activation of cofilin in AR42J cells [1] | decrease of A71378-mediated activation of p44/42 [2] [%] | inhibition of CCK-8/A71378-induced amylase secretion (AR42J cells) | effect on basal amylase release (AR42J cells) | effect on LIMK dephosphorylation ([3]; TPA 1 µM) | time of return of LIMK phosphorylation to basal levels ([3]; CCK-8 0.3 or 100 nM) [min] |
| --- | --- | --- | --- | --- | --- | --- |
| CC(=O)O[C@H]1C(=O)[C@@]2(C)[C@H]([C@H](OC(=O)c3ccccc3)[C@]3(O)C[C@H](OC(=O)[C@H](O)[C@@H](NC(=O)c4ccccc4)c4ccccc4)C(C)=C1C3(C)C)[C@]1(OC(C)=O)CO[C@@H]1C[C@@H]2O [Paclitaxel] | completely inhibited | 36 | completely inhibited | Neither of these two cofilin inhibitors influenced basal amylase release |  |  |
| C=C1[C@@H](C)[C@H]2[C@H](Cc3ccccc3)NC(=O)[C@]23[C@H](OC(C)=O)/C=C/[C@@](C)(O)C(=O)[C@@H](C)C/C=C/[C@H]3[C@@H]1O [Cytochalasin D] | completely inhibited | 34 | completely inhibited | Neither of these two cofilin inhibitors influenced basal amylase release |  |  |
| CCCCCCCCCCCCCC(=O)O[C@@H]1[C@@H](C)[C@@]2(O)[C@@H](C=C(CO)C[C@]3(O)C(=O)C(C)=C[C@@H]23)[C@H]2C(C)(C)[C@]12OC(C)=O [TPA, 12-O-tetradecanoylphobol-13-acetate] |  |  |  |  | did not cause LIMK dephosphorylation |  |
| COOH-terminal octapeptide of cholecystokinin [CCK-8] |  |  |  |  |  | 30 |
